Measured values: publication PMC8867915, “Amyloid and Hydrogel Formation of a Peptide Sequence from a Coronavirus Spike Protein” (ACS Nano, 2022)

Legend:
[1] = Hydrogel formation (tube inversion) as a function of pH; type: physicochemical; details: 1 wt % peptide in aqueous NaOH; cloudy gel, does not flow under tube inversion; liquid at the other pH values studied (pH 3-12)
From the text: Peptide […] is able to form a hydrogel under precisely defined conditions. […] The apple-green birefringence of the peptide gel stained with Congo red (Figure 6b) together with TEM images (Figure 6c) reveal that the hydrogel comprises a tight network of 20–50 nm wide peptide nanotapes. The viscoelastic response of the gel was studied by rheology. The linear regime was first identified by strain sweep experiments (Figure S5). The elastic modulus G′ > G′′ (the shear loss modulus) and G′ is weakly dependent on frequency and reaches a value >10^5 Pa at a high frequency (ω = 100 rad s^–1). These are all characteristic rheological signatures of gels, and the high frequency value of G′ is higher than that observed for many peptide hydrogels.[48] The FTIR spectrum shown in Figure 6e is very similar to that discussed for the solutions of 1 wt % […] at pH 4 and 5 and is consistent with a β-sheet secondary structure. The SAXS data was again fitted using a model form factor of Gaussian bilayers (Figure 6f). […]
Peptide […] was supplied by Peptide Synthetics (Peptide Protein Research Limited), Fareham, UK as a TFA salt. The molar mass by electrospray mass spectrometry is 1405.595 g mol^–1 and the purity is >95%, determined by high performance liquid chromatography (HPLC) in a gradient HPLC using an acetonitrile (0.1% TFA)/water (0.1% TFA) gradient with a Kinetex 2.6u XB-C18 100A column. […]

[2] = Rheology of peptide gel (frequency sweep of shear moduli); type: physicochemical; details: 1 wt % peptide gel at pH 4.4; cone and plate; constant stress 30 Pa; ω = 100 rad s^–1
From the text: Peptide […] is able to form a hydrogel under precisely defined conditions. […] The apple-green birefringence of the peptide gel stained with Congo red (Figure 6b) together with TEM images (Figure 6c) reveal that the hydrogel comprises a tight network of 20–50 nm wide peptide nanotapes. The viscoelastic response of the gel was studied by rheology. The linear regime was first identified by strain sweep experiments (Figure S5). The elastic modulus G′ > G′′ (the shear loss modulus) and G′ is weakly dependent on frequency and reaches a value >10^5 Pa at a high frequency (ω = 100 rad s^–1). These are all characteristic rheological signatures of gels, and the high frequency value of G′ is higher than that observed for many peptide hydrogels.[48] The FTIR spectrum shown in Figure 6e is very similar to that discussed for the solutions of 1 wt % […] at pH 4 and 5 and is consistent with a β-sheet secondary structure. The SAXS data was again fitted using a model form factor of Gaussian bilayers (Figure 6f). The XRD data is characterized by strong diffraction peaks at 10 and 4.7 Å, consistent with an amyloid cross-β diffraction pattern.[12],[49]−[51] The other weaker peaks can also be ascribed to β-sheet features.[49],[52]−[57]
Dynamic shear moduli were measured using a controlled stress AR-2000 rheometer from TA Instruments. […]

Sequence: RSAIEDLLFDKV
- pH at which hydrogel formation is observed [1]: 4.4 pH
- shear elastic modulus G′ at high frequency [2]: > 10^5 Pa
